Experimental data: patent US7618960B2, “Morpholine type cinnamide compound” (Eisai R&D Management Co., Ltd., priority 2005, dated 2009)

Each compound was assayed on Aβ42 production (assay: Quantification of Aβ peptide in culture of neurons from rat fetus brain (Aβ ELISA)). Details: Neuron, 72 h; rat primary neuronal culture (cerebral cortex, embryonic day 18 Wistar rats); medium collected three days after addition of compound; Aβx-42 ELISA; read-out: Activity for reducing Aβ42 production IC50.
Type: cell-based
Method: Quantification of Aβ Peptide in Culture of Neurons from Rat Fetus Brain
(1) Rat Primary Neuronal Culture
Primary neuronal cultures were prepared from the cerebral cortex of embryonic day 18 Wistar rats (Charles River Japan, Yokohama, Japan). Specifically, the embryos were aseptically removed from pregnant rats under ether anesthesia. The brain was isolated from the embryo and immersed in an ice-cold L-15 medium (Invitrogen Corp. Cat #11415-064, Carlsbad, Calif., USA, or SIGMA L1518, for example). The cerebral cortex was collected from the isolated brain under a stereoscopic microscope. The cerebral cortex fragments collected were enzymatically treated in an enzyme solution containing 0.25% trypsin (Invitrogen Corp. Cat #15050-065, Carlsbad, Calif., USA) and 0.01% DNase (Sigma D5025, St. Louis, Mo., USA) at 37° C. for 30 minutes to disperse the cells. Here, the enzymatic reaction was stopped by adding inactivated horse serum to the solution. The enzymatically treated solution was centrifuged at 1,500 rpm for five minutes to remove the supernatant. 5 to 10 ml of a medium was added to the resulting cell mass. Neurobasal medium (Invitrogen Corp. Cat #21103-049, Carlsbad, Calif., USA) supplemented with 2% B27 supplement (Invitrogen Corp. Cat #17504-044, Carlsbad, Calif., USA), 25 μM 2-mercaptoethanol (2-ME, WAKO Cat #139-06861, Osaka, Japan), 0.5 mM L-glutamine (Invitrogen Corp. Cat #25030-081, Carlsbad, Calif., USA), and Antibiotics-Antimycotics (Invitrogen Corp. Cat #15240-062, Carlsbad, Calif., USA) was used as the medium (Neurobasal/B27/2-ME). However, the above Neurobasal medium not supplemented with 2-ME (Neurobasal/B27) was used for the assay. The cells were redispersed by mild pipetting of the cell mass to which the medium was added. The cell dispersion was filtered through a 40-μm nylon mesh (Cell Strainer, Cat #35-2340, Becton Dickinson Labware, Franklin Lakes, N.J., USA) to remove the remaining cell mass, and thus a neuronal cell suspension was obtained. The neuronal cell suspension was diluted with the medium and then plated in a volume of 100 μl/well at an initial cell density of 5×10^5 cells/cm^2 in a 96-well polystyrene culture plate pre-coated with poly-L or D-lysine (Falcon Cat #35-3075, Becton Dickinson Labware, Franklin Lakes, N.J., USA coated with poly-L-lysine using the method shown below, or BIOCOAT™ cell environments Poly-D-lysine cell ware 96-well plate, Cat #35-6461, Becton Dickinson Labware, Franklin Lakes, N.J., USA). Poly-L-lysine coating was carried out as follows. 100 μg/ml of a poly-L-lysine (SIGMA P2636, St. Louis, Mo., USA) solution was aseptically prepared with a 0.15 M borate buffer (pH 8.5). 100 μl/well of the solution was added to the 96-well polystyrene culture plate and incubated at room temperature for one or more hours or at 4° C. overnight or longer. The coated 96-well polystyrene culture plate was washed with sterile water four or more times, and then dried or rinsed with, for example, sterile PBS or medium, and used for cell plating. The plated cells were cultured in the culture plate at 37° C. in 5% […]-95% air for one day. Then, the total amount of the medium was replaced with a fresh Neurobasal™/B27/2-ME medium, and then the cells were cultured for further three days.
The drug was added to the culture plate on Day 4 of culture as follows. The total amount of the medium was removed from the wells, and 180 μl/well of Neurobasal medium not containing 2-ME and containing 2% B-27 (Neurobasal/B27) was added thereto. A solution of the test compound in dimethyl sulfoxide (hereinafter abbreviated as DMSO) was diluted with Neurobasal/B27 so that the initial concentration was at 10-fold of the final concentration. 20 μl/well of the dilution was added to and sufficiently mixed with the medium. The final DMSO concentration was 1% or less. Only DMSO was added to the control group.
The cells were cultured for three days after addition of the compound, and the total amount of the medium was collected. […]

Structure (SMILES) | IC50 [nM]
COc1cc(/C=C2\OC(C)(C)CN([C@@H](C)c3ccnc(F)c3F)C2=O)ccc1-n1cnc(C)c1 [Example 58, (Z)-4-[(S)-1-(2,3-difluoropyridin-4-yl)ethyl]-2-[1-[3-methoxy-4-(4-methyl-1H-imidazol-1-yl)phenyl]methylidene]-6,6-dimethylmorpholin-3-one] | 67
COc1cc(/C=C2\OC(C)(C)CN([C@@H](C)c3ccc(Cl)cn3)C2=O)ccc1-n1cnc(C)c1 [Example 60, (Z)-4-[(S)-1-(5-chloropyridin-2-yl)ethyl]-2-[1-[3-methoxy-4-(4-methyl-1H-imidazol-1-yl)phenyl]methylidene]-6,6-dimethylmorpholin-3-one] | 96
Cc1cn(-c2ccc(/C=C3\O[C@@H](C)CN([C@H](c4cc(F)c(F)c(F)c4)[C@@H](C)O)C3=O)cc2F)cn1 [Example 74, (Z)-(S)-2-[1-[3-fluoro-4-(4-methyl-1H-imidazol-1-yl)phenyl]methylidene]-4-[(1R,2R)-2-hydroxy-1-(3,4,5-trifluorophenyl)propyl]-6-methylmorpholin-3-one] | 140
Cc1cn(-c2ccc(/C=C3\O[C@@H](C)CN([C@H](c4ccc(F)c(F)c4)[C@@H](C)O)C3=O)cc2F)cn1 [Example 75, (Z)-(S)-4-[(1R,2R)-1-(3,4-difluorophenyl)-2-hydroxypropyl]-2-[1-[3-fluoro-4-(4-methyl-1H-imidazol-1-yl)phenyl]methylidene]-6-methylmorpholin-3-one] | 146
Cc1cn(-c2ccc(/C=C3\OC(C)(C)CN([C@H](c4cc(F)c(F)c(F)c4)[C@@H](C)O)C3=O)cc2F)cn1 [Example 77, (Z)-2-[1-[3-fluoro-4-(4-methyl-1H-imidazol-1-yl)phenyl]methylidene]-4-[(1R,2R)-2-hydroxy-1-(3,4,5-trifluorophenyl)propyl]-6,6-dimethylmorpholin-3-one] | 141
Cc1cn(-c2ccc(/C=C3\C[C@H](C)CN([C@H](c4cc(F)c(F)c(F)c4)[C@@H](C)O)C3=O)cc2F)cn1 [Example 84, (E)-(S)-3-{1-[3-fluoro-4-(4-methyl-1H-imidazol-1-yl)phenyl]methylidene}-1-[(1R,2R)-2-hydroxy-1-(3,4,5-trifluorophenyl)propyl]-5-methylpiperidin-2-one] | 37
Cc1cn(-c2ccc(/C=C3\CCCN([C@H](c4cc(F)c(F)c(F)c4)[C@@H](C)O)C3=O)cc2F)cn1 [Example 85, (E)-3-{1-[3-fluoro-4-(4-methyl-1H-imidazol-1-yl)phenyl]methylidene}-1-[(1R,2R)-2-hydroxy-1-(3,4,5-trifluorophenyl)propyl]piperidin-2-one] | 64
COc1cc(/C=C2\OC[C@H]3CCC[C@@H](c4ccc(Cl)cc4)N3C2=O)ccc1-n1cnc(C)c1 [Example 107, (6S,9aR)-6-(4-chlorophenyl)-3-{1-[3-methoxy-4-(4-methyl-1H-imidazol-1-yl)phenyl]-(Z)-methylidene}hexahydropyrido[2,1-c][1,4]oxazin-4-one] | 78
COc1cc(/C=C2\OC[C@H]3COC[C@@H](c4cc(F)c(F)c(F)c4)N3C2=O)ccc1-n1cnc(C)c1 [Example 108, (6R,9aR)-3-{1-[3-methoxy-4-(4-methyl-1H-imidazol-1-yl)phenyl]-(Z)-methylidene}-6-(3,4,5-trifluorophenyl)tetrahydro[1,4]oxazino[3,4-c][1,4]oxazin-4-one] | 60
COc1cc(/C=C2\OC[C@H]3COC[C@@H](c4ccc(F)c(F)c4)N3C2=O)ccc1-n1cnc(C)c1 [Example 109, (6R,9aR)-6-(3,4-difluorophenyl)-3-{1-[3-methoxy-4-(4-methyl-1H-imidazol-1-yl)phenyl]-(Z)-methylidene}tetrahydro[1,4]oxazino[3,4-c][1,4]oxazin-4-one] | 100
COc1cc(/C=C2\OC[C@H]3COC[C@@H](c4ccc(Cl)cc4)N3C2=O)ccc1-n1cnc(C)c1 [Example 111, (6R,9aR)-6-(4-chlorophenyl)-3-[1-[3-methoxy-4-(4-methyl-1H-imidazol-1-yl)phenyl]-(Z)-methylidene]tetrahydro[1,4]oxadino[3,4-c]oxadine-4-one] | 129
